From patent publication US20080085264A1, “METHODS FOR ENHANCING STEM CELL ENGRAFTMENT DURING TRANSPLANTATION” (priority 2003, published 2008)

Tested on: Sca-1+c-kit-lin- mBM cells
Assay: Chemotaxis assay, CXCL12 induced migration of sorted Sca-1+c-kit-lin- mBM cells
Assay type: cell-based, mouse
Settings: 5 mM Diprotin A
Protocol: Chemotaxis assays were performed using 96-well chemotaxis chambers (NeuroProbe, Gaithersburg, Md.) in accordance with manufacturer's instructions as described previously with minor variations (Christopherson K W, 2nd, et al. J Immunol. 2002; 169:7000-7008; Christopherson K W, 2nd, et al. Blood. 2001; 98:3562-3568; Christopherson K, 2nd, et al. Immunol Lett. 1999; 69:269-273). Briefly 300 μl of RPMI supplemented with 10% FBS and either 0, 100, 200, and 400 ng/ml of mouse CXCL12 chemokine was added to the lower chamber. Ten-thousand sorted cells in 50 μL of media were added to the upper side of the membrane (5.7 mm diameter, 5 μm pore size, polycarbonate membrane.)
Total cell number in the lower well was obtained by counting using hemocytometer after 4 hours of incubation at 37° C., 5% CO2. Percent migration was calculated by dividing the number of the cells in the lower well by the total cell input multiplied by 100 and subtracting random migration (always less than 5%) to the lower chamber without chemokine presence. Three samples were analyzed separately in triplicate, and then the data averaged for statistical analysis.
The N-terminal truncated mouse CXCL12 (CXCL12 (amino acids 3-68)) was produced by treatment of mouse CXCL12 with DPPIV (Enzyme Systems Products, Livermore, Calif.) for 18 hrs at 37° C. in PBS pH 7.4. […]

Ile-Pro-Ile [Diprotin A]
increase in total cell migration (100 ng/ml CXCL12): 2.5 fold
increase in total cell migration (200 and 400 ng/ml CXCL12): two-fold
